Read-outs that look alike come from different tables or passages of the source.
Tests used:
Format in all cases: in vivo
[1] = test system: umbrella sedge (Cyperus difformis); assay: Test B flooded paddy test; details: Cyperus difformis, Flood, 1000 g ai/ha; scale 0 to 100; read-out: Plant response rating, Sedge, Umbrella
Outline: (§1)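 Rice, umbrella sedge, duck salad and barnyardgrass grown to 2-leaf stage under flooded paddy conditions and treated with formulated test chemicals. Kept in greenhouse 13–15 days, then visually rated against untreated controls on a 0–100 scale (0 no effect, 100 complete control).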

[2] = test system: duck salad (Heteranthera limosa); assay: Test B flooded paddy test; details: Heteranthera limosa, Flood, 1000 g ai/ha; scale 0 to 100; read-out: Plant response rating, Ducksalad
Outline: as §1

[3] = test system: barnyardgrass (Echinochloa crus-galli); assay: Test B flooded paddy test; details: Echinochloa crus-galli, Flood, 1000 g ai/ha; scale 0 (no effect) to 100 (complete control); read-out: Plant response rating, Barnyardgrass
Outline: as §1

rice (Oryza sativa) = assay: Test B flooded paddy test; details: Oryza sativa, Flood, 1000 g ai/ha; scale 0 to 100; read-out: Plant response rating, Rice
Outline: as §1

wild oat (Avena fatua) = assay: Test B postemergence; details: Avena fatua, post-emergence
Outline: (§2)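 Visual rating, 0 (no effect) to 100 (complete control) versus controls, taken 13–15 days after treatment in greenhouse. Compounds formulated in non-phytotoxic solvent plus surfactant; pre: sprayed after seeding; post: plants at 1- to 4-leaf stage, 2–18 cm.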

[4] = test system: blackgrass (Alopecurus myosuroides); assay: Test B postemergence; details: Alopecurus myosuroides, post-emergence
Outline: as §2

[5] = test system: velvetleaf (Abutilon theophrasti); assay: Test B pre/postemergence; details: Abutilon theophrasti; for pest or weed control at 125 g/ha: 125 g ai/ha; for pest or weed control at 500 g/ha: 500 g ai/ha
Outline: as §2

[6] = test system: pigweed (Amaranthus retroflexus); assay: Test B pre/postemergence; details: Amaranthus retroflexus; for pest or weed control at 125 g/ha: 125 g ai/ha; for pest or weed control at 500 g/ha: 500 g ai/ha
Outline: as §2

[7] = test system: wheat (Triticum aestivum); assay: Test B pre/postemergence; details: Triticum aestivum; for plant injury at 500 g/ha: 500 g ai/ha
Outline: as §2

[8] = test system: lambsquarters (Chenopodium album); assay: Test B pre/postemergence; details: Chenopodium album; for pest or weed control at 125 g/ha: 125 g ai/ha; for pest or weed control at 500 g/ha: 500 g ai/ha
Outline: as §2

[9] = test system: cocklebur (Xanthium strumarium); assay: Test B pre/postemergence; details: Xanthium strumarium; for pest or weed control at 125 g/ha: 125 g ai/ha; for pest or weed control at 500 g/ha: 500 g ai/ha
Outline: as §2

[10] = test system: morningglory (Ipomoea coccinea); assay: Test B pre/postemergence; details: Ipomoea; for pest or weed control at 125 g/ha: 125 g ai/ha; for pest or weed control at 500 g/ha: 500 g ai/ha
Outline: as §2

[11] = test system: barnyardgrass (Echinochloa crus-galli); assay: Test B pre/postemergence; details: Echinochloa crus-galli; for pest or weed control at 125 g/ha: 125 g ai/ha; for pest or weed control at 500 g/ha: 500 g ai/ha
Outline: as §2

corn (Zea mays) = assay: Test B pre/postemergence; details: Zea mays
Outline: as §2

[12] = test system: Surinam grass (Brachiaria decumbens); assay: Test B pre/postemergence; details: Urochloa decumbens; for pest or weed control at 125 g/ha: 125 g ai/ha; for pest or weed control at 500 g/ha: 500 g ai/ha
Outline: as §2

[13] = test system: giant foxtail (Setaria faberii); assay: Test B pre/postemergence; details: Setaria faberi; for pest or weed control at 125 g/ha: 125 g ai/ha; for pest or weed control at 500 g/ha: 500 g ai/ha
Outline: as §2

[14] = test system: crabgrass (Digitaria sanguinalis); assay: Test B pre/postemergence; details: Digitaria sanguinalis; for pest or weed control at 125 g/ha: 125 g ai/ha; for pest or weed control at 500 g/ha: 500 g ai/ha
Outline: as §2

CNc1nc(C2CC2)nc(C(=O)OC)c1Br [Compound 5] showed a pest or weed control at 1000 g/ha [1] of 90%, a pest or weed control at 1000 g/ha [2] of 90% and a pest or weed control at 1000 g/ha [3] of 50%. The plant injury at 1000 g/ha (rice (Oryza sativa)) was 0%, the pest or weed control at 125 g/ha (wild oat (Avena fatua); 125 g ai/ha, scale 0 to 100 (0 no effect, 100 complete control), read-out: Oat, Wild plant response rating) was 40% and the pest or weed control at 500 g/ha (wild oat (Avena fatua); 500 g ai/ha, scale 0 to 100, read-out: Plant response rating, Oat, Wild) was 60%. For the same compound, the pest or weed control at 125 g/ha ([4]; 125 g ai/ha, scale 0 to 100 (0 no effect, 100 complete control), read-out: Blackgrass plant response rating) was 70%, the pest or weed control at 500 g/ha ([4]; 500 g ai/ha, scale 0 to 100, read-out: Plant response rating, Blackgrass) was 80% and the pest or weed control at 125 g/ha ([5]; post-emergence, Postemergence, scale 0 to 100 (0 no effect, 100 complete control), read-out: Velvetleaf plant response rating) was 70%. The pest or weed control at 500 g/ha ([5]; post-emergence, Postemergence, scale 0 to 100, read-out: Plant response rating, Velvetleaf) was 90%, the pest or weed control at 125 g/ha ([5]; pre-emergence, Preemergence, scale 0 to 100 (0 no effect, 100 complete control), read-out: Plant response rating, Velvetleaf) was 70% and the pest or weed control at 500 g/ha ([5]; pre-emergence, Preemergence, scale 0 to 100 (0 no effect, 100 complete control), read-out: Velvetleaf plant response rating) was 90%. It also gave a pest or weed control at 125 g/ha ([6]; post-emergence, Postemergence, scale 0 to 100 (0 no effect, 100 complete control), read-out: Pigweed plant response rating) of 90%, a pest or weed control at 500 g/ha ([6]; post-emergence, Postemergence, scale 0 to 100, read-out: Plant response rating, Pigweed) of 100% and a pest or weed control at 125 g/ha ([6]; pre-emergence, Preemergence, scale 0 to 100 (0 no effect, 100 complete control), read-out: Plant response rating, Pigweed) of 90%. For the same compound, the pest or weed control at 500 g/ha ([6]; pre-emergence, Preemergence, scale 0 to 100 (0 no effect, 100 complete control), read-out: Pigweed plant response rating) was 90%, the plant injury at 125 g/ha ([7]; post-emergence, Postemergence, 125 g ai/ha, scale 0 to 100 (0 no effect, 100 complete control), read-out: Wheat plant response rating) was 50% and the plant injury at 500 g/ha ([7]; post-emergence, Postemergence, scale 0 to 100, read-out: Plant response rating, Wheat) was 60%. It also gave a plant injury at 500 g/ha ([7]; pre-emergence, Preemergence, scale 0 to 100 (0 no effect, 100 complete control), read-out: Wheat plant response rating) of 50%, a pest or weed control at 125 g/ha ([8]; post-emergence, Postemergence, scale 0 to 100 (0 no effect, 100 complete control), read-out: Lambsquarters plant response rating) of 100% and a pest or weed control at 500 g/ha ([8]; post-emergence, Postemergence, scale 0 to 100, read-out: Plant response rating, Lambsquarters) of 100%. The pest or weed control at 125 g/ha ([8]; pre-emergence, Preemergence, scale 0 to 100 (0 no effect, 100 complete control), read-out: Plant response rating, Lambsquarters) was 90%, the pest or weed control at 500 g/ha ([8]; pre-emergence, Preemergence, scale 0 to 100 (0 no effect, 100 complete control), read-out: Lambsquarters plant response rating) was 100% and the pest or weed control at 125 g/ha ([9]; post-emergence, Postemergence, scale 0 to 100 (0 no effect, 100 complete control), read-out: Cocklebur plant response rating) was 80%. It also gave a pest or weed control at 500 g/ha ([9]; post-emergence, Postemergence, scale 0 to 100, read-out: Plant response rating, Cocklebur) of 100%, a pest or weed control at 125 g/ha ([9]; pre-emergence, Preemergence, scale 0 to 100 (0 no effect, 100 complete control), read-out: Plant response rating, Cocklebur) of 70% and a pest or weed control at 500 g/ha ([9]; pre-emergence, Preemergence, scale 0 to 100 (0 no effect, 100 complete control), read-out: Cocklebur plant response rating) of 80%. For the same compound, the pest or weed control at 125 g/ha ([10]; post-emergence, Postemergence, scale 0 to 100 (0 no effect, 100 complete control), read-out: Morningglory plant response rating) was 100%, the pest or weed control at 500 g/ha ([10]; post-emergence, Postemergence, scale 0 to 100, read-out: Plant response rating, Morningglory) was 100% and the pest or weed control at 125 g/ha ([10]; pre-emergence, Preemergence, scale 0 to 100 (0 no effect, 100 complete control), read-out: Plant response rating, Morningglory) was 70%. For the same compound, the pest or weed control at 500 g/ha ([10]; pre-emergence, Preemergence, scale 0 to 100 (0 no effect, 100 complete control), read-out: Morningglory plant response rating) was 80%, the pest or weed control at 125 g/ha ([11]; post-emergence, Postemergence, scale 0 to 100 (0 no effect, 100 complete control), read-out: Barnyardgrass plant response rating) was 50% and the pest or weed control at 500 g/ha ([11]; post-emergence, Postemergence, scale 0 to 100, read-out: Plant response rating, Barnyardgrass) was 90%. It also gave a pest or weed control at 125 g/ha ([11]; pre-emergence, Preemergence, scale 0 to 100 (0 no effect, 100 complete control), read-out: Plant response rating, Barnyardgrass) of 10%, a pest or weed control at 500 g/ha ([11]; pre-emergence, Preemergence, scale 0 to 100 (0 no effect, 100 complete control), read-out: Barnyardgrass plant response rating) of 30% and a plant injury at 125 g/ha (corn (Zea mays); post-emergence, Postemergence, 125 g ai/ha, scale 0 to 100 (0 no effect, 100 complete control), read-out: Corn plant response rating) of 30%. For the same compound, the Corn plant response rating (crop injury, 0 = no effect, 100 = complete kill) at 500 g/ha (corn (Zea mays); post-emergence, Postemergence, 500 g ai/ha, scale 0 to 100) was 90%, the Corn plant response rating (crop injury, 0 = no effect, 100 = complete kill) at 125 g/ha (corn (Zea mays); pre-emergence, Preemergence, 125 g ai/ha, scale 0 to 100 (0 no effect, 100 complete control)) was 0% and the plant injury at 500 g/ha (corn (Zea mays); pre-emergence, Preemergence, 500 g ai/ha, scale 0 to 100 (0 no effect, 100 complete control), read-out: Corn plant response rating) was 70%. It also gave a pest or weed control at 125 g/ha ([12]; post-emergence, Postemergence, scale 0 to 100 (0 no effect, 100 complete control), read-out: Surinam Grass plant response rating) of 50%, a pest or weed control at 500 g/ha ([12]; post-emergence, Postemergence, scale 0 to 100, read-out: Plant response rating, Surinam Grass) of 80% and a pest or weed control at 125 g/ha ([12]; pre-emergence, Preemergence, scale 0 to 100 (0 no effect, 100 complete control), read-out: Plant response rating, Surinam Grass) of 0%. It also gave a pest or weed control at 500 g/ha ([12]; pre-emergence, Preemergence, scale 0 to 100 (0 no effect, 100 complete control), read-out: Surinam Grass plant response rating) of 10%, a pest or weed control at 125 g/ha ([13]; post-emergence, Postemergence, scale 0 to 100 (0 no effect, 100 complete control), read-out: Foxtail, Giant plant response rating) of 40% and a pest or weed control at 500 g/ha ([13]; post-emergence, Postemergence, scale 0 to 100, read-out: Plant response rating, Foxtail, Giant) of 50%. For the same compound, the pest or weed control at 125 g/ha ([13]; pre-emergence, Preemergence, scale 0 to 100 (0 no effect, 100 complete control), read-out: Plant response rating, Foxtail, Giant) was 0%, the pest or weed control at 500 g/ha ([13]; pre-emergence, Preemergence, scale 0 to 100 (0 no effect, 100 complete control), read-out: Foxtail, Giant plant response rating) was 10% and the pest or weed control at 125 g/ha ([14]; post-emergence, Postemergence, scale 0 to 100 (0 no effect, 100 complete control), read-out: Crabgrass plant response rating) was 50%. For the same compound, the pest or weed control at 500 g/ha ([14]; post-emergence, Postemergence, scale 0 to 100, read-out: Plant response rating, Crabgrass) was 90%, the pest or weed control at 125 g/ha ([14]; pre-emergence, Preemergence, scale 0 to 100 (0 no effect, 100 complete control), read-out: Plant response rating, Crabgrass) was 20% and the pest or weed control at 500 g/ha ([14]; pre-emergence, Preemergence, scale 0 to 100 (0 no effect, 100 complete control), read-out: Crabgrass plant response rating) was 70%.

From patent US8802597B2, “Herbicidal pyrimidines” (E I du Pont de Nemours and Company, priority 2003, dated 2014)
